The test system of assay [1] is male Balb/b mice. The assay can be described thus: water immersion sleep deprivation test (weighted swimming time). The class given is in vivo. The conditions noted are these: Example 3, FIG. 4; riboflavin 25 or 50 mg/kg (riboflavin equivalent), sesamin 50 mg/kg, p.o. once a day for 2 days of water immersion.
Method: That is, by measuring the swimming time in a water-immersion sleep deprivation test. A mouse, kept in such an environment as water immersion that they are unable to have a sufficient sleep or resting position to rest physically or mentally, is forced to swim under the stress of a weight and the time it takes to have its nose submerged in the water for at least 10 seconds is measured to determine the degree of its fatigue. Since this animal model is a physical and mental fatigue model, if the administration of a test substance prolongs the swimming time, it is confirmed that the model has resistance to fatigue, as exemplified by prevention or amelioration of physical and mental fatigue and the accompanying distress such as muscular pain, an increase in physical strength that helps prolong the time to exhaustion, and maintenance of physical vigor in a fatigued state.
The effect against fatigue was evaluated by a water immersion sleep deprivation test. […]
After two days of water immersion, the mice were allowed to swim with a weight attached to each of their tails having a mass equivalent to 8% of their body weight, and the time they took to have their nose submerged in water for at least 10 seconds was measured.
The anti-fatigue action due to riboflavin and a sesamin-class compound(s) was measured as in Example 3, except that the mice were divided into six groups as shown in Table 2.
Assay [2] has as its system Wistar male rats. The assay can be described thus: acetic acid writhing test. Format: in vivo. The protocol: A test on analgesic action was conducted by a partly modified version of the acetic acid writhing test of Moon et. al. (Biol. Pharm. Bull. (2005)). The specific test method was as follows. […] Three days before the acetic acid writhing test, the rats were divided into three groups each consisting of 6 heads; the control group was orally administered through a tube with olive oil at a dose of 5 ml/kg whereas the remaining two groups were administered with sesamin-class compounds (sesamin/episesamin mixture; sesamin: episesamin (weight ratio)=5:5) as they were dissolved in olive oil at respective doses of 50 mg/kg and 100 mg/kg. Subsequently, administration was similarly performed two days before the test and on the day before the test, two administrations were effected, one in the morning and the other in the evening; thus, a total of four administrations were effected. On the day of testing, rats that had been fasted overnight from the previous night were orally administered with 5 ml/kg of physiological saline and one hour later, they were administered intraperitoneally with 1 ml/170 g of physiological saline containing 1% acetic acid and immediately after this administration, the number of writhing movements the animals made for 30 minutes right after the administration was counted. […]
On the technique in general: In writhing tests, fewer writhes than in controls are read as antinociception.

For assay [3] the following is noted: perorally, 1 to 50 mg/kg; no further rise up to 75 mg; cited from earlier work.
For assay [4] the following is noted: intraperitoneally, 3 to 100 mg/kg; cited from earlier work.
For assay [5] the following is noted: ingested in high doses; cited from earlier work.

Turning to `Cc1cc2nc3c(=O)[nH]c(=O)nc-3n(C[C@H](O)[C@H](O)[C@H](O)COP(=O)(O)O)c2cc1C` [riboflavin, riboflavin sodium phosphate], in assay [1], the “suppression of the shortening of the swimming time (anti-fatigue action)” value is “suppressed in the shortening of the swimming time”. The “number of writhing movements versus control group (Olive+Saline)” value in assay [2] (Example 1, FIG. 2, vitamin B2 30 mg/kg riboflavin equivalent p.o. alone) is reported as “tendency to make a smaller number of writhing movements than the control group”. For the same compound, the “suppression of number of writhing movements compared with control group (Olive+Saline)” value in assay [2] (Example 2, FIG. 3, vitamin B2 30 mg/kg riboflavin equivalent p.o., sesamin-class compounds 100 mg/kg p.o. x4 in the combination) stood at 10.5%. In assay [3], the “analgesic effect in a formaldehyde test” value is given as “peaked at 25 mg”. For the same compound, in assay [4], the “analgesic action against inflammatory pain” value is listed as “showed an analgesic action against inflammatory pain in a dose-dependent fashion” and the “effect against pain in the nervous system” value was “ineffective”. The migraine prophylaxis entry in assay [5] is reported as “effective for migraine prophylaxis”.

The record behind these values is US9895375B2, “Compositions containing riboflavin and sesamin-class compounds” (SUNTORY HOLDINGS LIMITED, priority 2006, dated 2018).
